25 molecules from patent US11098060B2, “Macrocycle containing aminopyrazole and pyrimidine and pharmaceutical composition and use thereof” (CHIA TAI TIANQING PHARMACEUTICAL GROUP CO., LTD., priority 2017, dated 2021) can be followed below.

One data set addresses TrkA^WT kinase (Homo sapiens (Human), UniProt P04629). In words: Assay for inhibitory activity (IC50) against TrkA^WT (HTRF). Format: biochemical. The conditions noted are these: TrkA 1 nM, ATP 40 μM, TK peptide 1 μM, 60 min at 23° C. For orientation: TR-FRET usually uses a lanthanide donor and a delayed reading to cut background.
Data set [1] concerns the target TrkA^G595R (Kinase domain) kinase (Homo sapiens (Human), UniProt P04629, G595R). As to the kind of experiment: Assay for inhibitory activity (IC50) against TrkA^G595R kinase (HTRF). It counts as biochemical. The conditions noted are these: kinase 0.2 nM, TK peptide 1 μM, 120 min at 23° C.
The nature of data set [2]: Pharmacokinetic assay in rats, oral. Format: in vivo. The conditions noted are these: rat, male SD rats, 5 mg/kg single intragastric administration, plasma. The method, then: Male SD rats were available from Beijing Vital River Laboratory Animal Technology Co., Ltd. The rats were allocated with three rats per group, and orally administered the suspension of a sample to be tested (5 mg/kg, the suspension is a mixed solution of 10% EtOH, 40% PEG 400 and 50% H2O) by single intragastric administration, respectively. Before the experiment, the animals were fasted overnight, and the fasting time was from 10 hrs before administration to 4 hrs after administration. After administration, a blood sample was taken at 0.25 hr, 0.5 hr, 1 hr, 2 hrs, 4 hrs, 6 hrs, 8 hrs and 24 hrs, respectively. After the animals were narcotized with isoflurane using an anaesthesia machine for small animals, 0.3 mL of whole blood was taken from fundus venous plexus, and placed in a heparin anticoagulant tube. At 4° C., the sample was centrifuged at 4000 rpm for 5 min, and plasma was transferred to a centrifuge tube and preserved at −80° C. until the analysis was started. The sample in plasma was extracted by the protein precipitation method, and the extracted liquid was analyzed by LC/MS/MS.

Chain of TrkA^WT kinase (P04629 33-796): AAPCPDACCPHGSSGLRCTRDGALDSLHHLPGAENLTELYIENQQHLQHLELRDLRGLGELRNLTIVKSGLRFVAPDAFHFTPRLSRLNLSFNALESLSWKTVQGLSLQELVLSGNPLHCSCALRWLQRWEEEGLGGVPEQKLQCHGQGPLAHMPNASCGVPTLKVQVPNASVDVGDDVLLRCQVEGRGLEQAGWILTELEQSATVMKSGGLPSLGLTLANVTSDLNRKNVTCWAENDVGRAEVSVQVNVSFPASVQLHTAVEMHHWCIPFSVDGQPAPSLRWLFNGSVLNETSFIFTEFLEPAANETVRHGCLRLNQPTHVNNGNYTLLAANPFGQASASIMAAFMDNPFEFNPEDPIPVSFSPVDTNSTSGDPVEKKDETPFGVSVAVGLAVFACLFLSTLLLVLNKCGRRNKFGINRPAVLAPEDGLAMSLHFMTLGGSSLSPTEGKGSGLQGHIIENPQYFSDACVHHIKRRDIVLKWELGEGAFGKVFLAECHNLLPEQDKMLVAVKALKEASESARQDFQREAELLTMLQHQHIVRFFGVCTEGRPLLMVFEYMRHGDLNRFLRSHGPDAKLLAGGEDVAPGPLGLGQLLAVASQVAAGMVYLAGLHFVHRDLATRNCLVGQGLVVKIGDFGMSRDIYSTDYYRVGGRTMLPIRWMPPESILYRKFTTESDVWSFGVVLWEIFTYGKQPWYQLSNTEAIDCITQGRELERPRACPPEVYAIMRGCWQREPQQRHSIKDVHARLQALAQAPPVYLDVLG
Chain of TrkA^G595R (Kinase domain) kinase (P04629 510-781 G595R): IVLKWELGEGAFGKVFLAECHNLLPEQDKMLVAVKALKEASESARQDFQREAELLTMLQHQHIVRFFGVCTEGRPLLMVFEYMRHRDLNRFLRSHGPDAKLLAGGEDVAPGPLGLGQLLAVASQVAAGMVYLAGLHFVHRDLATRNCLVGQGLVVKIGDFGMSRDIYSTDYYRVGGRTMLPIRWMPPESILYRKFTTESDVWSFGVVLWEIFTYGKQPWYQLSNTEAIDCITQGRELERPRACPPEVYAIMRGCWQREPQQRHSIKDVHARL

Usually IC50 stands for the concentration needed to halve the response being measured. For the molecule `Nc1nn2ccc3nc2c1C(=O)NCCCOc1ncc(F)cc1C1CCCN31` (centres unmarked) [Example 2], the concentration for half-maximal inhibition (IC50) against TrkA^WT kinase was found to be 0.57 ± 0.1 nM.
As to `Nc1nn2ccc3nc2c1C(=O)NCCOc1ncc(F)cc1[C@H]1C[C@@H](O)CN31` [Example 9, (1^3E,1^4E,2^2R,2^4R)-1^2-amino-3^5fluoro-2^4-hydroxy-4-oxa-7-aza-1(5,3)-pyrazolo[1,5-a] pyrimidine-3(3,2)-pyridine-2(1,2)-pyrrolidylcyclooctanephane-8-one], the values for the IC50 (against TrkA^WT kinase; in data set [1]) were 0.44 ± 0.12 nM and 0.84 ± 0.14 nM, respectively.
The molecule `C[C@@H]1COc2ncc(F)cc2[C@H]2C[C@H](F)CN2c2ccn3nc(N)c(c3n2)C(=O)N1` [Example 19, (1^3E,1^4E,2^2R,2^4S,6R)-1^2-amino-2^4, 3^5-difluoro-6-methyl-4-oxa-7-aza-1(5,3)-pyrazolo[1,5-a] pyrimidine-3(3,2)-pyridine-2(1,2)-pyrrolidylcyclooctanephane-8-one] returned an IC50 in data set [1] of 0.73 ± 0.07 nM.
In turn, `Nc1nn2ccc3nc2c1C(=O)NCCCn1cc(F)cc(c1=O)[C@H]1CCCN31` [Example 22, (1^3E,1^4E,2^2R)-1^2-Amino-3^5-fluoro-3^1,3^2-dihydro-7-aza-1(5,3)-pyrazolo[1,5-a]pyrimidine-3(3,1)-pyridine-2(1,2)-pyrrolidylcyclooctanephane-3^2,8-dione] showed a 50% inhibitory concentration (IC50) against TrkA^WT kinase of 0.57 ± 0.03 nM.
As for `Nc1nn2ccc3nc2c1C(=O)NCCCOc1ncc(F)cc1[C@H]1CCCN31` [Example 21, (R,1^3E,1^4E)-1^2-Amino-3^5-fluoro-4-oxa-8-aza-1(5,3)-pyrazol[1,5-a]pyrimidine-3(3,2)-pyridine-2(1,2)-pyrrolidylcyclononanephane-9-one], the figures for the IC50 (against TrkA^WT kinase; in data set [1]) were 0.4 ± 0.04 nM and 0.85 ± 0.04 nM, respectively.
With `Nc1nn2ccc3nc2c1C(=O)NCCOc1ccc(F)cc1[C@@H]1CCCN31` [Example 20, (S,1^3E,1^4E)-1^2-amino-3^5-fluoro-4-oxa-7-aza-1(5,3)-pyrazolo [1,5-a]pyrimidine-2(1,2)-pyrrolidine-3(1,2)-benzocyclooctanephane-8-one], the IC50 at TrkA^WT kinase came out at 3.8 ± 0.21 nM.
Regarding `Nc1nn2ccc3nc2c1C(=O)NCCCCc1ncc(F)cc1[C@H]1C[C@H](F)CN31` [Example 31, (1^3E,1^4E,2^2R,2^4S)-1^2-amino-2^4,3^5-difluoro-8-aza-1(5,3)-pyrazolo[1,5-a]pyrimidine-3(3,2)-pyridine-2(1,2)-pyrrolidylcyclononanephane-9-one], the IC50 in data set [1] amounted to 1.45 ± 0.11 nM.
In turn, `Nc1nn2ccc3nc2c1C(=O)NCCOc1ncccc1[C@H]1CCCN31` [Example 5, (R,1^3E,1^4E)-1^2-amino-4-oxa-7-aza-1(5,3)-pyrazolo[1,5-a]pyrimidine-3(3,2)-pyridine-2 (1,2)-pyrrolidylcyclooctanephane-8-one] returned a 50% inhibitory concentration (IC50) against TrkA^WT kinase of 0.37 ± 0.04 nM.
In the case of `Nc1nn2ccc3nc2c1C(=O)NCCCc1ncc(F)cc1[C@H]1C[C@H](F)CN31` [Example 27, (1^3E,1^4E,2^2R,2^4S)-1^2-amino-2^4,3^5-difluoro-7-aza-1(5,3)-pyrazolo[1,5-a]pyrimidine-3(3,2)-pyridine-2(1,2)-pyrrolidylcyclooctanephane-8-one], the half-maximal inhibitory concentration (IC50) came to 0.21 ± 0.03 nM against TrkA^WT kinase and 0.68 ± 0.26 nM in data set [1].
Molecule `Nc1nn2ccc3nc2c1C(=O)NCCCCc1cccc(n1)C1CCCN31` (centres unmarked) [Example 3, (1^3E,1^4E)-1^2-amino-4-oxa-8-aza-1(5,3)-pyrazolo[1,5-a]pyrimidine-3(2,6)-pyridine-2 (1,2)-pyrrolidylcyclononanephane-9-one] registered a half-maximal inhibitory concentration (IC50) on TrkA^WT kinase of 0.84 ± 0.12 nM.
For “(1^3E,1^4E,2^2R,2^4S)-1^2-Amino-2^4,3^5-difluoro-4-oxa-8-aza-1(5,3)-pyrazolo[1,5-a]pyrimidin-3(3,2)-pyridine-2(1,2)-pyrrolidylcyclononanephane-9-one [Example 12]”, the IC50 against TrkA^WT kinase was found to be 0.72 ± 0.04 nM; in data set [1], 0.34 ± 0.04 nM.
With `Nc1nn2ccc3nc2c1C(=O)NCCOc1ncccc1C1CCCN31` (centres unmarked) [Example 11, (1^3E, 1^4E)-1^2-amino-4-oxa-7-aza-1(5,3)-pyrazolo[1,5-a]pyrimidine-3(3,2)-pyridine-2 (1,2)-pyrrolidylcyclooctanephane-8-one], 1.04 ± 0.34 nM corresponded to half-maximal inhibition against TrkA^WT kinase (IC50).
For `CN1CCCOc2ncc(F)cc2[C@H]2C[C@H](F)CN2c2ccn3nc(N)c(c3n2)C1=O` [Example 17, (1^3E,1^4E,2^2R,2^4S)-1^2-amino-2^4,3^5-difluoro-8-methyl-4-oxa-8-aza-1(5,3) -pyrazolo[1,5-a] pyrimidine-3(3,2)-pyridine-2(1,2)-pyrrolidylcyclononanephane-9-one], the half-maximal inhibitory concentration (IC50) against TrkA^WT kinase is 0.61 ± 0.06 nM; in data set [1] it was 1.05 ± 0.16 nM.
`C[C@H]1CNC(=O)c2c(N)nn3ccc(nc23)N2CCC[C@@H]2c2cc(F)ccc2O1` [Example 32, (1^3E,1^4E,2^2R,5S)-1^2-amino-3^5-fluoro-5-methyl-4-oxa-7-aza-1(5,3)-pyrazolo[1,5-a]pyrimidine-(1,2)-pyrrolidine-3(1,2)-benzocyclooctanephane-8-one] returned an IC50 in data set [1] of 1.28 ± 0.05 nM.
The same measure, in the same setting: the value for `Nc1nn2ccc3nc2c1C(=O)NCC(F)(F)COc1ncc(F)cc1[C@H]1C[C@H](F)CN31` [Example 35, (1^3E,1^4E,2^2R,2^4S)-1^2-amino-2^4,3^5,6,6-tetrafluoro-4-oxa-8-aza-1(5,3)-pyrazol[1,5-a]pyrimidine-3(3,2)-pyridine-2(1,2)-pyrrolidylcyclononanephane-9-one] was 1.36 ± 0.02 nM; that for `CC1(C)CNC(=O)c2c(N)nn3ccc(nc23)N2C[C@@H](F)CC2c2cc(F)cnc2OC1` (some centres unmarked) [Example 18, (1^3E,1^4E,2^2R,2^4S)-1^2-amino-2^4,3^5-difluoro-6,6-dimethyl-4-oxa-8-aza-1(5,3)-pyrazolo [1,5-a]pyrimidine-3(3,2)-pyridine-2(1,2)-pyrrolidylcyclononanephane-9-one] was 1.24 ± 0.15 nM.
Turning to `C[C@H]1CCc2ncc(F)cc2[C@H]2C[C@H](F)CN2c2ccn3nc(N)c(c3n2)C(=O)N1` [Example 29, (1^3E,1^4E,2^2R,24S,6S)-1^2-amino-2^4,3^5-difluoro-6-methyl-7-aza-1(5,3)-pyrazolo[1,5-a]pyrimidine-3(3,2)-pyridine-2(1,2) pyrrolidylcyclooctanephane-8-one], the IC50 was 0.25 ± 0.02 nM at TrkA^WT kinase and 1.08 ± 0.24 nM in data set [1].
With `C[C@@H]1CCc2ncc(F)cc2[C@H]2CCCN2c2ccn3nc(N)c(c3n2)C(=O)N1` [Example 28, (1^3E,1^4E,2^2R,6R)-1^2-amino-3^5-fluoro-6-methyl-7-aza-1(5,3)-pyrazolo[1,5-a]pyrimidine 3(3,2)-pyridine-2(1,2) pyrrolidylcyclooctanephane-8-one], the IC50 came to 0.31 ± 0.03 nM against TrkA^WT kinase and 1.01 ± 0.36 nM in data set [1].
With `Nc1nn2ccc3nc2c1C(=O)NCCCOc1ncccc1[C@H]1CCCN31` [Example 6, (R,1^3E,1^4E)-1^2-amino-4-oxa-8-aza-1(5,3)-pyrazolo[1,5-a]pyrimidine-3(3,2)-pyridine-2 (1,2)-pyrrolidylcyclononanephane-9-one], 0.47 ± 0.26 nM corresponded to half-maximal inhibition against TrkA^WT kinase (IC50).
Regarding `Nc1nn2ccc3nc2c1C(=O)NCCCn1cc(F)cc(c1=O)C1CCCN31` (centres unmarked) [Example 24, (1^3E,1^4E)-1^2-amino-3^5-fluoro-3^1,3^2-dihydro-7-aza-1(5,3)-pyrazolo[1,5-a]pyrimidine-3(3,1)-pyridine-2(1,2)-pyrrolidylcyclooctanephane-3^2,8-dione], on TrkA^WT kinase, half-maximal inhibition (IC50) was put at 0.85 ± 0.07 nM.
As for `Nc1nn2ccc3nc2c1C(=O)NCCOc1ccc(F)cc1[C@H]1CCCN31` [Example 8, (R,1^3E,1^4E)-1^2-amino-3^5-fluro-4-oxa-7-aza-1(5,3)-pyrazolo[1,5-a]pyrimidine-2(1,2)-pyrrolidine-3(1,2)-benzocyclooctanephane-8-one], the results for the IC50 (at TrkA^WT kinase; in data set [1]) were 0.41 ± 0.04 nM and 2.08 ± 0.45 nM, respectively.
For `Nc1nn2ccc3nc2c1C(=O)NCCCCOc1ncc(F)cc1[C@H]1C[C@H](F)CN31` [Example 16, (1^3E,1^4E,2^2R,2^4S)-1^2-amino-2^4,3^5-difluoro-4-oxa-9-aza-1(5,3)-pyrazolo[1,5-a] pyrimidine-3(3,2)-pyridine-2(1,2)-pyrrolidylcyclodecanephane-10-one], the figures for the IC50 (against TrkA^WT kinase; in data set [1]) were 0.51 ± 0.05 nM and 0.76 ± 0.14 nM, respectively.
Molecule `Nc1nn2ccc3nc2c1C(=O)NCCCOc1ncc(F)cc1C1C[C@@H](F)CN31` (some centres unmarked) [Example 13, (1^3E,1^4E, 2^2R,2^4R)-1^2-amino-2^4,3^5-difluoro-4-oxa-8-aza-1(5,3)-pyrazolo[1,5-a]pyrimidine-3(3,2)-pyridine-2 (1,2)-pyrrolidylcyclononanephane-9-one] gave an IC50 at TrkA^WT kinase of 0.64 ± 0.02 nM.
For the molecule `Nc1nn2ccc3nc2c1C(=O)NCCCOc1ccc(F)cc1[C@H]1CCCN31` [Example 10, (R,1^3E,1^4E)-1^2-amino-3^5-fluro-4-oxa-8-aza-1(5,3)-pyrazolo[1,5-a]pyrimidine-2(1,2)-pyrrolidine-3(1,2)-benzocyclononanephane-9-one], the IC50 against TrkA^WT kinase worked out at 0.8 ± 0.21 nM; in data set [1] it was 1.92 ± 0.1 nM.
What is called AUC(0-inf) is total exposure, with the tail of the curve extrapolated. The term Cmax denotes the highest concentration seen after dosing. A word on the Tmax: it is the time at which the peak concentration occurs. As usually defined, the half-life is the time in which the quantity being followed falls by half. In the case of `Nc1nn2ccc3nc2c1C(=O)NCCOc1ncc(F)cc1[C@H]1CCCN31` [Example 33, (R,1^3E,1^4E)-1^2-amino-3^5-fluoro-4-oxa-7-aza-1(5,3)-pyrazo[1,5-a]pyrimidine-3(3,2)-pyridine-2(1,2)-pyrrolidylcyclooctanephane-8-one], in data set [2], the area under the curve AUC(0-inf) was 513 ng·h/mL, the highest concentration (Cmax) worked out at 142 ng/mL, the Tmax came to 0.5 h and the half-life was 4.22 h.
